Results as given in paper PMC6135100 (Toxicology, 2017).
Read-outs that look alike come from different tables or passages of the source.

Assays:
AR [1] = details: AR reference compounds; ref Kleinstreuer 2016; cited from earlier work
AR (full receptor) = AR (full receptor) (Homo sapiens, UniProt P10275); test: qHTS AR-luciferase; format: cell-based; details: for AR-luc Primary Assay EC50 / AR-luc Primary Assay Efficacy: primary qHTS; for AR-luc Primary Assay EC50: Inactive = efficacy below 30% of R1881's activity; for AR-luc Efficacy / EC50: Table 3, mean ± SD, n=3; for AR-luc Efficacy / AR-luc Primary Assay Efficacy: relative to maximal efficacy of R1881; for EC50: read-out: AR-luc EC50
[2] = molecular target: T1, rat AR ligand-binding domain (LBD) fused to the DNA-binding domain of GAL4 (Rattus norvegicus, UniProt P15207); test: qHTS AR β-lactamase; format: cell-based; details: for AR-bla Primary Assay EC50: Inactive = efficacy below 30% of R1881's activity
T1 sequence (P15207 651-882 limits assumed): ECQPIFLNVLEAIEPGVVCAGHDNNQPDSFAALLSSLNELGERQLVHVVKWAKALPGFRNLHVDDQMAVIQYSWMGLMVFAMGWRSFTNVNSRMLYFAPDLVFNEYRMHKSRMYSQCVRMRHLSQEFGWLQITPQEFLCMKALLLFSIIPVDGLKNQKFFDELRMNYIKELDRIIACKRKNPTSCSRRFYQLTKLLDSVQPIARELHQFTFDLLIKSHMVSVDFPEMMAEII

AR [3] = details: ref Tamaya et al. 1986; cited from earlier work
AR-LBD = molecular target: T2, AR-LBD (Rattus norvegicus, UniProt P15207); test: Fluorescence polarization AR competition binding assay
T2 sequence (P15207 651-882 limits assumed): T1 sequence (P15207 651-882 limits assumed)

rabbit = rabbit development study; ref Morinaga et al. 1996b; cited from earlier work
estrogen receptor = estrogen receptor (Homo sapiens, UniProt P03372); test: Analogous estrogen receptor screens; format: cell-based; details: data not shown
estrogen receptor, sequence (P03372 whole entry): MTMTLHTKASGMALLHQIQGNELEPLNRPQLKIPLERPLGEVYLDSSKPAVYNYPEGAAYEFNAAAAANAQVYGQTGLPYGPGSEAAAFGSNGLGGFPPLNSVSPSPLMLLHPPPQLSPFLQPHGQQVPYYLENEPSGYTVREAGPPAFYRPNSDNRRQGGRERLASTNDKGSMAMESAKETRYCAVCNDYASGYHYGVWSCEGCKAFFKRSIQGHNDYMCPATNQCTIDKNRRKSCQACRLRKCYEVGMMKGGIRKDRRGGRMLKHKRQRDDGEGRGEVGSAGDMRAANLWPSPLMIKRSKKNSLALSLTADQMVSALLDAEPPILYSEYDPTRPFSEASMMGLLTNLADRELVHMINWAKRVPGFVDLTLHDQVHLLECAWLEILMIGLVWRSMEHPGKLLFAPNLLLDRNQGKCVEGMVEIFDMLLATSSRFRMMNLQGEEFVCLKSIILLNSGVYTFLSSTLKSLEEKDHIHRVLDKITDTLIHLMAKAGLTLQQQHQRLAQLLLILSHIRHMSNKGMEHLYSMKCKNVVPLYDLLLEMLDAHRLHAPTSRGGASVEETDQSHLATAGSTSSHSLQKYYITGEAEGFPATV

AR (full receptor), sequence (P10275 whole entry, the tested form may be a part): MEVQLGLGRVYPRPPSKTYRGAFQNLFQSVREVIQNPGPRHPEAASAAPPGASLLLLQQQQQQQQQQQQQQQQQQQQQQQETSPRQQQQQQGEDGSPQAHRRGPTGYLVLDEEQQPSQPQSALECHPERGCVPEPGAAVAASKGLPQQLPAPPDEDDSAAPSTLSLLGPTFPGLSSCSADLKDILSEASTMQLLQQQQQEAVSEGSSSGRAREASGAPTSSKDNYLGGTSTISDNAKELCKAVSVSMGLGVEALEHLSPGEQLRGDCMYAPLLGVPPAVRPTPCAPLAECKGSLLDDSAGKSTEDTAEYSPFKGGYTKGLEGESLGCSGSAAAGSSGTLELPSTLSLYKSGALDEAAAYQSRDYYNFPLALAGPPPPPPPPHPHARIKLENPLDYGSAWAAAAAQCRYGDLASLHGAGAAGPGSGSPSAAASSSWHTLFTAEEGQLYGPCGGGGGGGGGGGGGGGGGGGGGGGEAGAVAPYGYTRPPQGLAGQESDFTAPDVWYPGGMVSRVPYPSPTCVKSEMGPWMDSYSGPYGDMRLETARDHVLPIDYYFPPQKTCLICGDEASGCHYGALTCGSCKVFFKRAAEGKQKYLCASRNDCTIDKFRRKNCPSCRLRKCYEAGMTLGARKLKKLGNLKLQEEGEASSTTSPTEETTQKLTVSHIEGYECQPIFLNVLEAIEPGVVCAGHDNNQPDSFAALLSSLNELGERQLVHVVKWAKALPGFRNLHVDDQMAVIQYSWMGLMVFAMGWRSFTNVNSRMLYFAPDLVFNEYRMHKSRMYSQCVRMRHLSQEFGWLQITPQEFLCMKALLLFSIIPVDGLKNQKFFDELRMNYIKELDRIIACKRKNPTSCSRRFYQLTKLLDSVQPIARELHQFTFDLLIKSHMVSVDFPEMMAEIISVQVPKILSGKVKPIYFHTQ

Compound | Known AR Activity (AR [1]) | also measured
C[C@]12CC[C@H]3[C@@H](CCC4=CC(=O)CC[C@@H]43)[C@@H]1CC[C@@H]2O [Nandrolone] | Agonist | –
CC/C(=C(\c1ccccc1)c1ccc(OCCN(C)C)cc1)c1ccccc1 [Tamoxifen] | Inactive | –
C[C@]12CCC(=O)C=C1CC[C@@H]1[C@@H]2CC[C@]2(C)C(=O)CC[C@@H]12 [4-Androstenedione] | Agonist | –
OC(c1ccc(Cl)cc1)(c1cncnc1)c1ccccc1Cl (stereo not shown) [Fenarimol] | Inactive | –
COC(=O)Nc1nc2ccccc2[nH]1 [Carbendazim] | Inactive | AR-luc Primary Assay EC50 (AR (full receptor)): Inactive^b; AR-bla Primary Assay EC50 ([2]; primary qHTS): Inactive^b
C[C@]1(O)CC[C@H]2[C@@H]3CCC4=CC(=O)CCC4=C3C=C[C@@]21C [Methyltrienolone (R1881), Methyltrienolone] | Agonist | AR-bla Primary Assay Efficacy [2]: 0.00131 [131] %
C#C[C@]1(O)CC[C@H]2[C@@H]3CCC4=C(CCC(=O)C4)[C@H]3CC[C@@]21C [Norethynodrel] | Agonist | –
CC(C)NC(=O)N1CC(=O)N(c2cc(Cl)cc(Cl)c2)C1=O [Iprodione] | Inactive | –
C[C@]1(O)CC[C@H]2[C@@H]3CCC4=CC(=O)CC[C@]4(C)[C@@]3(F)[C@@H](O)C[C@@]21C [Fluoxymestrone] | Agonist | –
Oc1ccc(/C=C/c2cc(O)cc(O)c2)cc1 [Resveratrol] | Inactive | AR-luc Primary Assay EC50 (AR (full receptor)): Inactive^b; AR-bla Primary Assay EC50 ([2]; primary qHTS): Inactive^b
CC1(C)[C@@H](O[C@H]2O[C@H](C(=O)O)[C@@H](O)[C@H](O)[C@H]2O[C@@H]2O[C@H](C(=O)O)[C@@H](O)[C@H](O)[C@H]2O)CC[C@]2(C)[C@H]3C(=O)C=C4[C@@H]5C[C@@](C)(C(=O)O)CC[C@]5(C)CC[C@@]4(C)[C@]3(C)CC[C@@H]12 [Glycyrrhizin] | – | binding to AR, previously identified (AR [3]): weak binder of AR
C=C1C[C@H]2[C@@H]3C=C(C)C4=CC(=O)CC[C@]4(C)[C@H]3CC[C@]2(C)[C@@]1(OC(C)=O)C(C)=O [Melengestrol acetate] | – | AR-luc Efficacy (AR (full receptor)): 288.12 ± 44.83%; EC50 (AR (full receptor)): 0.017 ± 0.012 µM; IC50 (AR-LBD): 1.17 ± 0.2 µM; FP Binding Efficacy (AR-LBD; mean ± SD, n=3, printed as negative values): −124.24 ± 3.58%
C[C@]12C=CC3=C4CCC(=O)C=C4CCC3C1CC[C@@H]2O (stereo partly shown) [Trenbolone] | Agonist | AR-luc Primary Assay Efficacy (AR (full receptor)): 122%; AR-bla Primary Assay Efficacy ([2]; primary qHTS, relative to maximal efficacy of R1881): 105%
CC1(C)[C@H](C(=O)O[C@H](C#N)c2cccc(Oc3ccccc3)c2)[C@@H]1C=C(Br)Br [Deltamethrin] | Inactive | AR-luc Primary Assay EC50 (AR (full receptor)): Inactive^b; AR-bla Primary Assay EC50 ([2]; primary qHTS): Inactive^b
C[C@]12CCC(=O)C=C1CC[C@@H]1[C@@H]2CC[C@@]2(C)[C@H]1CC[C@]2(C)O [Methyltestosterone] | Agonist | –
CCCN(CCOc1c(Cl)cc(Cl)cc1Cl)C(=O)n1ccnc1 [Prochloraz] | Inactive | –
CN1C(=O)CN=C(c2ccccc2)c2cc([N+](=O)[O-])ccc21 [Nimetazepam, nimetazepam] | – | AR-luc Primary Assay Efficacy (AR (full receptor)): 470%
CC(=O)O[C@]1(C(C)=O)CC[C@H]2[C@@H]3C[C@H](C)C4=CC(=O)CC[C@]4(C)[C@H]3CC[C@@]21C [Medroxyprogesterone acetate] | Agonist | –
CC(=O)O[C@]1(C(C)=O)CC[C@H]2[C@@H]3C=C(Cl)C4=CC(=O)[C@@H]5C[C@@H]5[C@]4(C)[C@H]3CC[C@@]21C [Cyproterone acetate] | Weak Agonist | –
C[C@]12CCC(=O)C[C@@H]1CC[C@@H]1[C@@H]2CC[C@]2(C)[C@@H](O)CC[C@@H]12 [5α-Dihydrotestosterone] | Agonist | –
C[C@]12CC[C@H]3[C@@H](CCC4=CC(=O)CC[C@@]43C)[C@@H]1CC[C@@H]2O [Testosterone] | Agonist | –
C#C[C@]1(O)CC[C@H]2[C@@H]3CCC4=CC(=O)CC[C@@H]4[C@H]3CC[C@@]21CC [Levonorgestrel] | Agonist | –
CC1(C)NC(=O)N(c2ccc([N+](=O)[O-])c(C(F)(F)F)c2)C1=O [Nilutamide] | Inactive | –
CC(C)C(=O)Nc1ccc([N+](=O)[O-])c(C(F)(F)F)c1 [Flutamide] | Inactive | –
C[C@]12CC[C@H]3C(=CCc4cc(O)ccc43)[C@@H]1CCC2=O [Equilin] | – | AR-luc Efficacy (AR (full receptor)): 89.27 ± 18.86%; EC50 (AR (full receptor)): 6.31 ± 2.03 µM; EC50 [2]: 19.5 µM; AR-bla Efficacy ([2]; Table 3, mean ± SD, n=3, relative to maximal efficacy of R1881): 31.53 ± 3.88%; FP Binding Efficacy (AR-LBD): −89.77 ± 13.22%; IC50 (AR-LBD): 21 ± 3.41 µM
Clc1ccc(C(c2ccc(Cl)cc2)C(Cl)(Cl)Cl)cc1 [p,p’-DDT] | Inactive | –
Cc1oc(=O)oc1CN1CCN(c2cc3c(cc2F)c(=O)c(C(=O)O)c2n3C(C)S2)CC1 (stereo not shown) [Prulifloxacin] | – | NOAEL for pregnancy (rabbit): 30 mg/kg; general toxicity NOAEL (rabbit): 10 mg/kg; activity in estrogen receptor screens (estrogen receptor): active
C#C[C@]1(O)CC[C@H]2[C@@H]3CCC4=CC(=O)CC[C@@H]4[C@H]3CC[C@@]21C [Norethindrone] | Agonist | –
CCNc1nc(Cl)nc(NC(C)C)n1 [Atrazine] | Inactive | –
C#C[C@]1(OC(C)=O)CC[C@H]2[C@@H]3CCC4=CC(=O)CC[C@@H]4[C@H]3CC[C@@]21C [Norethindrone acetate] | Agonist | –
